From patent US20260115202A1, “TOPICAL COMPOSITIONS COMPRISING AN ESTETROL COMPONENT AND USE OF SAID COMPOSITIONS FOR WOUND HEALING” (NEURALIS SA, priority 2022, published 2026)
Entries after “also recorded” stand apart in the source; their conditions may differ.

Assays:
[1] = system: normal human epidermal keratinocytes (NHEKs); assay: Scratch wound assay, normal human epidermal keratinocytes; assay type: cell-based; details: NHEK, 10^−7/10^−8 M range, 15% and 30% HKGS, 24 hours
Procedure: Primary human dermal fibroblasts (HDF) were isolated from abdominal skin or leg skin. Primary neonatal normal human epidermal keratinocytes (NHEK) were purchased (Lonza). Murine dermal fibroblasts (MDF), murine epidermal keratinocytes (MEK), murine peritoneal macrophages and murine bone marrow were isolated from C57/B16 (wt). NDb (Lepr+/−) or Db (Lepr−/−) mice.
Neonatal HEK were cultured in EpiLife supplemented with […] human keratinocyte growth supplements (HKGS) and 1% penicillin/streptomycin. MEK were cultured in CnT basal medium supplemented with 1% penicillin/streptomycin and 1% amphotericin B.
Cells were seeded into 24 well plates and cultured to form a confluent monolayer, and then scratched with a 1 ml pipette tip. Wells were treated with E2, E4 and/or various estrogen receptor agonists and antagonists. […] A vehicle control containing the equivalent concentration of EtOH and/or DMSO was included, in addition to an untreated negative control. All treatments were diluted to working concentrations in media supplemented with 2% charcoal-stripped FBS. […] Scratch closure was determined from multiple independent measurements per well.
The effects of E2 and E4 on keratinocyte migration where evaluated using primary normal human epidermal keratinocytes (NHEKs).

[2] = system: murine peritoneal macrophages; assay: M1-polarised freshly isolated murine peritoneal macrophages, qPCR of M1 markers; assay type: cell-based, mouse; details: peritoneal macrophages pre-treated at 10^−7M, M1 polarised 6 hours; for expression of M1 markers (iNOS, IL1-β, Tnf-α): versus vehicle
Procedure: Peritoneal macrophages from C57/B16 mice were isolated by peritoneal lavage. The peritoneal cavity of euthanised mice were filled with 5 ml ice cold PBS supplemented with 3% FBS. Cell-containing lavage fluid was removed using a needle and syringe and cells seeded into 12- or 6-well plates at 1×10^6 cells/ml in RPM1 growth medium supplemented with 10% charcoal-stripped FBS and 1% penicillin/streptomycin, were treated with 10^-7M E2 or E4 in serum free growth medium for 16 hours and polarised to M1-type cells using 100 ng/ml IFN-γ and 1 μg/ml LPS. Following 6- or 24-hours polarisation cells were collected for RNA isolation or flow cytometry. Following treatments, human and murine macrophages were collected in Trizol and RNA isolated using the Trizol plus RNA isolation kit (Invitrogen. Thermo Fisher) according to the manufacturer's instructions. RNA was reverse transcribed to cDNA using GoScript reverse transcriptase (Promega). Quantitative real-time PCR was carried out using 2×Takyon SYBR Green mastermix and a CFX Connect thermocycler. Primers for ERα and ERβ were used to explore changes in ER expression after treatment of MEK and MDF with E2 and E4. To investigate the effect of E2 and E4 on MEK differentiation and the expression of ECM proteins by MDF, primers for. Snail, keratin-1 and fibronectin, collagen I. MMP-2 and MMP-9 were used. Primers for INOS. IL-1B and Tnf-α or Ccl17 were used to assess M1/M2 polarisation status. Primers for GAPDH were used to normalise data. Relative gene expression was set to vehicle controls or M0 expression unless otherwise stated. Finally, the anti-inflammatory effects E2 and E4 were evaluated in freshly isolated murine peritoneal macrophages. Unlike the BMDM protocol, the already differentiated peritoneal macrophages were immediately pre-treated with E2 (10^−7M) or E4 (10^−7M), followed by M1 polarisation using IFN-γ and LPS for 6 hours. […] Note, the overall level of marker expression was higher in these cells. […] The observed anti-inflammatory effects of E4 were broadly similar to those observed for E2.

[3] = system: human dermal fibroblasts (HDF); assay: Scratch wound assay, human dermal fibroblasts; assay type: cell-based; details: for concentration of optimal stimulation of fibroblast scratch wound closure / scratch closure compared to vehicle control: HDF; for scratch closure: HDF fifth donor, 24 hours, DMEM with 2% CS-FBS, 0% FBS or 2% FBS; for scratch closure compared to vehicle control: 36 hours
Text: Primary human dermal fibroblasts (HDF) were isolated from abdominal skin or leg skin. Primary neonatal normal human epidermal keratinocytes (NHEK) were purchased (Lonza). Murine dermal fibroblasts (MDF), murine epidermal keratinocytes (MEK), murine peritoneal macrophages and murine bone marrow were isolated from C57/B16 (wt). NDb (Lepr+/-) or Db (Lepr-/-) mice. Fibroblasts were isolated and cultured in DMEM supplemented with 10% heat inactivated FBS. 1% penicillin/streptomycin and 1% amphotericin B. At least 4 days prior to performing assays cells were switched to DMEM supplemented with 5% charcoal-stripped FBS. Cells were seeded into 24 well plates and cultured to form a confluent monolayer, and then scratched with a 1 ml pipette tip. Wells were treated with E2, E4 and/or various estrogen receptor agonists and antagonists. […] A vehicle control containing the equivalent concentration of EtOH and/or DMSO was included, in addition to an untreated negative control. All treatments were diluted to working concentrations in media supplemented with 2% charcoal-stripped FBS. To visualise scratches at the defined endpoint, cells were stained with crystal violet and imaged on a Nikon E400 brightfield microscope. Scratch closure was determined from multiple independent measurements per well. Scratch assays were performed to quantify the effect of E2 and E4 at varying concentrations on HDF migration (FIG. 14). […] 10^-7M and 10^-6M (152%. 147% and 142% respectively). Thus, both E2 and E4 optimally stimulated fibroblast scratch wound closure at 10^-8M, with the higher magnitude of stimulation observed following E2 treatment. Next, an additional experiment was performed using HDF to a) further confirm the effects of E2 and E4 in fibroblasts from a fifth donor and b) explore the relative effect of including CS-FBS in the cell culture media. Three identical sets of scratch assays were performed (comparing vehicle to E2 or E4 treatment at 10^-7M) in DMEM containing either 2% CS-FBS. 0% FBS or 2% FBS (not CS).

Compound	scratch wound closure [1]	expression of M1 markers (iNOS, IL1-β, Tnf-α) [2]	concentration of optimal stimulation of fibroblast scratch wound closure [3]	scratch closure ([3]; 10^−7M)	scratch closure compared to vehicle control ([3]; 10^−6M)	scratch closure compared to vehicle control ([3]; 10^−7M)	scratch closure compared to vehicle control ([3]; 10^−9M)	expression of IL1-β [2]	scratch closure compared to vehicle control ([3]; 10^−8M)
C[C@]12CC[C@@H]3c4ccc(O)cc4CC[C@H]3[C@@H]1CC[C@@H]2O [Formulation E2, 17β-estradiol, reference compound]	strong trend to faster wound closure	strong trend towards reduced expression	10^−8 M	promoted scratch closure	no difference in closure was observed	141%	no difference in closure was observed		
C[C@]12CC[C@@H]3c4ccc(O)cc4CC[C@H]3[C@@H]1[C@@H](O)[C@@H](O)[C@@H]2O [Formulation E4, 1,3,5 (10)-estratrien-3,15alpha, 16alpha, 17beta-tetrol]	strong trend to faster wound closure	strong trend towards reduced expression	10^−8 M	promoted scratch closure; also recorded: greatest promotion	142%	147%		achieved statistical significance	152%
